For one assay, the target named is poly(dGdC). Put plainly: ethidium displacement assay, poly(dGdC). The class given is binding. Conditions: poly(dGdC); ± 0.02 × 10^5 M^-1; pH 7.4. The text has this:
The ethidium displacement assay is based on the fact that ethidium binding to DNA causes a large (approximately 25 fold) florescence enhancement as a result of the hydrophobic environment surrounding the ethidium molecule. Displacement of ethidium results in decreased fluorescence, and thus binding constants of drugs to DNA can be estimated and compared by measuring the loss of fluorescence as a function of added drug. The drug concentration which produces 50% inhibition of florescence is approximately inversely proportional to the apparent binding constant.
The relative DNA binding constants (Kapp) of distamycin and Compounds 6-10 to calf thymus DNA, T4 coliphage DNA, poly(dAdT) and poly(dGdC) were determined using the ethidium displacement assay (Morgan et al., 1979). The Kapp of ethidium bromide (Debart et al., 1989) is included for comparison. 25 μL of a 2A260 DNA solution was added to 2 mL of ethidium bromide buffer (250 μL of 1.3 mM ethidium bromidestock, 314.9 mg Tris-HCl, 60.8 mg Tris base and 930/mg of Na2 EDTA.2H2 O in 250 ml H2 O) pH 7.4 and the maximum fluorescence was measured (excitation wavelength=546 nm, emission wavelength=600 nm) at ambient temperature.
DNA solutions of 2A260 were prepared as follows: T4 coliphage DNA: 10 units of DNA were dissolved in 1 mL of 10 mM sodium phosphate (pH 7.1) and 0.25 mM EDTA buffer to give a 10A260 solution. 0.3 mL of the stock solution were diluted to 1.5 mL with 10 mM sodium phosphate (pH 7.1) and 0.25 mM EDTA buffer to give a 2A260 solution. Calf thymus DNA: 100 units of DNA were dissolved in 5 mL of 10 mM sodium phosphate (pH 7.1) and 0.25 mM EDTA buffer to give a 20A260 solution. 1.5 mL of the stock solution were diluted to 15 mL with 10 mM sodium phosphate (pH 7.1) and 0.25 mM EDTA buffer to give a 2A260 solution. Poly(dA-dT) and Poly(dG-dC) DNA: 100 units of DNA were dissolved in 10 mL of 10 mM sodium phosphate pH 7.1) and 0.25 mM EDTA buffer to give a 10A260 solution. 3 mL of the stock solution were diluted to 15 mL with 10 mM sodium phosphate (pH 7.1) and 0.25 mM EDTA buffer to give a 2A260 solution.
Aliquots of 10 mM stock drug solution (1 mg of drug to be tested was dissolved with 1 mole equivalent of 0.1M HCl, and then diluted with appropriate volume of distilled water to make a 10 mM solution) were then added to the fluorescing solution and the florescence measured after each addition until a 50% reduction of fluorescence occurred. If the 10 mM stock solution lowered the % fluorescence too quickly, the stock solution was further diluted to 1 mM prior to titration. The apparent binding constant was then calculated from this equation: KEtBr [EtBr]=Kapp [drug], where [drug]=the concentration of drug at a 50% reduction of fluorescence and KEtBr [1×10^7 M^-1 for calf thymus and coliphage T4 DNA^18, 9.5×10^6 M^-1 for poly(dA.dT)^30, and 9.9×10^6 M^-1 for poly(dG.dC)^30 ] and [EtBr] were known. The concentration of ethidium bromide was 1.3 μM. The Kapp values are shown in Table I. In a separate experiment, the Kapp of Compound 5 for calf thymus DNA and poly[dGdC] were determined to be 0.3×10^5 M^-1 and 2.6×10^5 M^-1, respectively. The error in these measurements is ±[…].

The next assay deals with MALME-3M. Put plainly: NCI cytotoxicity screen (SRB). The class given is cell-based, human. As for the experimental part:
(§1) Compounds 6, 7, 9 and 10 were tested for cytotoxic properties by the National Cancer Institute, Bethesda, Md. The anticancer drug screen utilized a panel of 60 human tumor cell lines organized into subpanels representing leukemia, melanoma, and cancers of the lung, colon, kidney, ovary and central nervous system and is described by Monks et al. (1991) Journal of the National Cancer Institute 83, 757, which is incorporated herein by reference.
(§2) Cell lines were inoculated onto microtiter plates and preincubated for 24-28 hours. 100 μL aliquots of each compound were added to the appropriate microtiter plate wells in each of five 10-fold dilutions starting from a maximum concentration of 10^-4 M in water or DMSO. Cultures were then incubated for an additional 48 hours. Cells were then fixed in situ, followed by staining with sulforhodamine B (SRB), which binds to basic amino acids of cellular macromolecules. The solubilized stain was measured spectrophotometrically to determine relative cell growth or viability in treated and untreated cells. The monoimidazole analogs of Compounds 6, 7, 9 and 10 and the formamido analog corresponding to Compounds 7 and 10 are devoid of activity against the panel of cancer cell lines in Table III.

A further assay concerns SF-539. Put plainly: NCI cytotoxicity screen (SRB). The class given is cell-based, human. As for the experimental part: as §1, §2
The next assay deals with U251. Put plainly: NCI cytotoxicity screen (SRB). It counts as cell-based, human. As for the experimental part:
as §1, §2

A further assay concerns HCT-116. Put plainly: NCI cytotoxicity screen (SRB). It counts as cell-based, human. Here is the method:
as §1, §2

In another assay the test system is SF-295. Briefly: NCI cytotoxicity screen (SRB). The class given is cell-based, human. Here is the method:
as §1, §2

Another assay has as its system NCI-H23. Briefly: NCI cytotoxicity screen (SRB). The class given is cell-based, human. As for the experimental part:
as §1, §2

A further assay relates to NCI-H226. Put plainly: NCI cytotoxicity screen (SRB). The class given is cell-based, human. As for the experimental part:
as §1, §2

The next assay concerns NCI-H522. Put plainly: NCI cytotoxicity screen (SRB). The class given is cell-based, human. Here is the method:
as §1, §2

The subject of the next assay is HT29. Put plainly: NCI cytotoxicity screen (SRB). It counts as cell-based, human. Here is the method: as §1, §2
In a further assay the test system is A549/ATCC. Briefly: NCI cytotoxicity screen (SRB). The class given is cell-based, human. Here is the method: as §1, §2
The subject of a further assay is EKVX. Put plainly: NCI cytotoxicity screen (SRB). The class given is cell-based, human. As for the experimental part: as §1, §2
The next assay concerns KM12. Briefly: NCI cytotoxicity screen (SRB). The class given is cell-based, human. As for the experimental part: as §1, §2
The next assay relates to HL-60 (TB). Put plainly: NCI cytotoxicity screen (SRB). It counts as cell-based, human.
Where [1] appears, read: 48 h, Non-Small Cell Lung Cancer NCI-H23.
The mark [2] stands for this setting: 48 h, Non-Small Cell Lung Cancer NCI-H226.
Setting [3] is: 48 h, Non-Small Cell Lung Cancer NCI-H522.
The mark [4] stands for this setting: 48 h, Non-Small Cell Lung Cancer A549/ATCC.
[5] abbreviates: 48 h, Non-Small Cell Lung Cancer EKVX.
[6] abbreviates: A549/ATCC, subsequent test date.

Turning to `CN(C)CCNC(=O)c1nc(NC(=O)c2nc(NC(=O)c3nc(NCc4ccc(N(CCCl)CCCl)cc4)cn3C)cn2C)cn1C` [Compound 8, N-(N',N'-dimethylaminoethyl)-1-methyl-4-{1-methyl-4-[4-(4,4-bis-(2-chloroethyl)aminobenzylamino)-1-methylimidazole-2-carboxamido]imidazole-2-carboxamido}imidazole-2-carboxamide], the “Association constant Kapp” value at poly(dGdC) worked out at 339000 M⁻¹.

Turning to `CN(C)CCNC(=O)c1nc(NC(=O)c2nc(NC(=O)c3nc(NC(=O)CCCc4ccc(N(CCCl)CCCl)cc4)cn3C)cn2C)cn1C` [Compound 10, N-(N',N'-dimethylaminoethyl)-1-methyl-4-{1-methyl-4-[4-(4,4-bis(2-chloroethyl)aminophenyl-1-butanamido)-1-methylimidazole-2-carboxamido]imidazole-2-carboxamido}imidazole-2-carboxamide], at poly(dGdC), the “Association constant Kapp” value is 16000 M⁻¹. Also, the IC50 in the assay on MALME-3M (48 h, Melanoma MALME-3M) turned out to be 52.7 µM; with SF-539 (48 h, CNS Cancer SF-539) it was 6.13 µM; in the assay on U251 (48 h, CNS Cancer U251), 5.27 µM; in the assay with HCT-116 (48 h, Colon Cancer HCT-116) it was 5.76 µM; in the assay with SF-295 (48 h, CNS Cancer SF-295) it was 9.74 µM; in the assay with NCI-H23 (setting [1]) it was 34.8 µM. The IC50 amounted to 67.5 µM in the assay on NCI-H226 (setting [2]); 6.77 µM in the assay with NCI-H522 (setting [3]); 51 µM with HT29 (48 h, Colon Cancer HT29); 10.7 µM with A549/ATCC (setting [4]); 87.8 µM in the assay with EKVX (setting [5]); 24.1 µM in the assay on KM12 (48 h, Colon Cancer KM12). In the assay on HL-60 (TB) (48 h, Leukemia HL-60 (TB)), this compound gave an IC50 of 7.89 µM.

In the case of `CN(C)CCNC(=O)c1nc(NC(=O)c2nc(NC(=O)c3ccc(N(CCCl)CCCl)cc3)cn2C)cn1C` [Compound 6, N-(N',N'-dimethylaminoethyl)-1-methyl-4-{4-[4,4-bis(2-chloroethyl)aminobenzamido]-1-methylimidazole-2-carboxamido}imidazole-2-carboxamide], the “Association constant Kapp” value at poly(dGdC) is 455000 M⁻¹. Also, the IC50 in the assay with MALME-3M (48 h, Melanoma MALME-3M) turned out to be 6.14 µM; in the assay on MALME-3M (MALME-3M, subsequent test date) it was 64.3 µM; in the assay with SF-539 (48 h, CNS Cancer SF-539), 6.97 µM; in the assay on SF-539 (SF-539, subsequent test date) it was 57.3 µM; in the assay with U251 (48 h, CNS Cancer U251) it was 6.73 µM; in the assay with U251 (U251, subsequent test date), 5.8 µM. The IC50 was 6.54 µM with HCT-116 (48 h, Colon Cancer HCT-116); 6.71 µM in the assay with HCT-116 (HCT-116, subsequent test date); 43.6 µM in the assay with SF-295 (48 h, CNS Cancer SF-295); 33.2 µM with SF-295 (SF-295, subsequent test date); 47.1 µM with NCI-H23 (setting [1]); 43.6 µM with NCI-H23 (NCI-H23, subsequent test date). The IC50 in the assay on NCI-H226 (setting [2]) worked out at 62.2 µM; in the assay with NCI-H226 (NCI-H226, subsequent test date), 61.3 µM; in the assay with NCI-H522 (setting [3]), 6.98 µM; in the assay with NCI-H522 (NCI-H522, subsequent test date), 5.74 µM; in the assay with HT29 (48 h, Colon Cancer HT29), 5.9 µM; in the assay on HT29 (HT29, subsequent test date), 27.4 µM. Moreover, the IC50 with A549/ATCC (setting [4]) turned out to be 58.8 µM; in the assay on A549/ATCC (setting [6]), 38.4 µM; with EKVX (setting [5]), 47.5 µM; in the assay with EKVX (EKVX, subsequent test date), 38 µM; in the assay on KM12 (48 h, Colon Cancer KM12) it was 47 µM; with KM12 (KM12, subsequent test date), 31.6 µM. For the same compound, the IC50 was 7.84 µM in the assay on HL-60 (TB) (48 h, Leukemia HL-60 (TB)) and 7.93 µM with HL-60 (TB) (HL-60 (TB), subsequent test date).

For `CN(C)CCNC(=O)c1nc(NC(=O)c2nc(NC(=O)c3nc(NC(=O)c4ccc(N(CCCl)CCCl)cc4)cn3C)cn2C)cn1C` [Compound 7, N-(N',N'-dimethylaminoethyl)-1-methyl-4-{1-methyl-4-[4-(4,4-bis-(2-chloroethyl)aminobenzamido)-1-methylimidazole-2-carboxamido]imidazole-2-carboxamido}imidazole-2-carboxamide], the “Association constant Kapp” value on poly(dGdC) is 495000 M⁻¹. Besides, the IC50 in the assay with MALME-3M (48 h, Melanoma MALME-3M) worked out at 2.63 µM; with MALME-3M (MALME-3M, subsequent test date), 4.34 µM; with SF-539 (SF-539, subsequent test date), 0.59 µM; with U251 (U251, subsequent test date), 0.5 µM; in the assay on SF-295 (48 h, CNS Cancer SF-295), 4.1 µM; with NCI-H23 (setting [1]), 0.96 µM. Further, the IC50 in the assay on NCI-H23 (NCI-H23, subsequent test date) is 2.35 µM; in the assay on NCI-H226 (NCI-H226, subsequent test date), 5.54 µM; in the assay on NCI-H522 (setting [3]), 4.41 µM; in the assay with NCI-H522 (NCI-H522, subsequent test date) it was 0.42 µM; in the assay on HT29 (48 h, Colon Cancer HT29), 2.3 µM; with HT29 (HT29, subsequent test date), 1.97 µM. For the same compound, the IC50 was found to be 5.64 µM with A549/ATCC (setting [4]); 4.12 µM with A549/ATCC (setting [6]); 0.88 µM with EKVX (setting [5]); 1.7 µM with EKVX (EKVX, subsequent test date); 0.96 µM in the assay with KM12 (48 h, Colon Cancer KM12); 0.75 µM in the assay on KM12 (KM12, subsequent test date). This compound showed an IC50 in the assay on HL-60 (TB) (48 h, Leukemia HL-60 (TB)) of 0.72 µM.

In the case of `CN(C)CCNC(=O)c1nc(NC(=O)c2nc(NC(=O)CCCc3ccc(N(CCCl)CCCl)cc3)cn2C)cn1C` [Compound 9, N-(N',N'-dimethylaminoethyl)-1-methyl-4-{4-[4,4-bis(2-chloroethyl)aminophenyl-1-butanamido]-1-methylimidazole-2-carboxamido}imidazole-2-carboxamide], at poly(dGdC), the “Association constant Kapp” value came out at 76000 M⁻¹. Besides, the half-inhibitory concentration (IC50) was 56.3 µM in the assay on MALME-3M (48 h, Melanoma MALME-3M); 47.9 µM in the assay with SF-539 (48 h, CNS Cancer SF-539); 46.2 µM in the assay on U251 (48 h, CNS Cancer U251); 50.2 µM in the assay with HCT-116 (48 h, Colon Cancer HCT-116); 51.9 µM with SF-295 (48 h, CNS Cancer SF-295); 67.3 µM in the assay with NCI-H23 (setting [1]). The IC50 was 47.9 µM in the assay on NCI-H226 (setting [2]); 86.6 µM in the assay with NCI-H522 (setting [3]); 78.5 µM in the assay on A549/ATCC (setting [4]); 60.9 µM in the assay with KM12 (48 h, Colon Cancer KM12); 43.8 µM in the assay with HL-60 (TB) (48 h, Leukemia HL-60 (TB)).

Broadly, the IC50 is the point on the concentration scale where inhibition reaches its midpoint.

The values are drawn from patent US5273991A, “Imidazole-containing compositions and methods of use thereof analogs of distamycin” (Research Corporation Technologies, Inc., priority 1992, dated 1993).
